Patent US20060069132A1, “Azolecarboxamide herbicides” (priority 2004, published 2006)

How the values were obtained:
barnyardgrass [1] = assay: Test A pre-/postemergence herbicide test; type: in vivo, Echinochloa crus-galli
Summary of the method: (§1)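 Greenhouse injury scoring (0–100, complete control = 100) at approximately ten days follows simultaneous pre- and postemergence application. Soil received a directed spray after seeding; seedlings of 2–10 cm at the one- to two-leaf stage were sprayed to runoff.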

large crabgrass [2] = assay: Test A pre-/postemergence herbicide test; type: in vivo, Digitaria sanguinalis
Summary of the method: as §1

giant foxtail [3] = assay: Test A pre-/postemergence herbicide test; type: in vivo, Setaria faberi
Summary of the method: as §1

morningglory [4] = assay: Test A pre-/postemergence herbicide test; type: in vivo, Ipomoea spp.
Summary of the method: as §1

redroot pigweed = assay: Test A pre-/postemergence herbicide test; type: in vivo, Amaranthus retroflexus
Summary of the method: as §1

velvetleaf [5] = assay: Test A pre-/postemergence herbicide test; type: in vivo, Abutilon theophrasti
Summary of the method: as §1

barnyardgrass [6] = assay: Test B pre-/postemergence herbicide test; type: in vivo, Echinochloa crus-galli; conditions: for Barnyardgrass plant response rating: postemergence, visual rating, scale 0 (no effect) to 100 (complete control)
Summary of the method: (§2)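 Greenhouse pot assay with simultaneous preemergence (treated seed) and postemergence (2–18 cm seedlings) applications of surfactant-containing, non-phytotoxic solvent formulations. Response scored visually 13–15 days later on a 0–100 scale, 100 meaning complete control.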

Surinam grass = assay: Test B pre-/postemergence herbicide test; type: in vivo, Urochloa decumbens; conditions: for Surinam Grass plant response rating: postemergence, visual rating, scale 0 (no effect) to 100 (complete control)
Summary of the method: (§3)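 Pre: seeds sown, then sprayed. Post: 1–4-leaf plants (2–18 cm) sprayed at the same time. Paddy: flooded, treated at 2-leaf stage. Formulation: non-phytotoxic solvent with surfactant. Greenhouse 13–15 days; visual 0–100 score relative to controls.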

cocklebur = assay: Test B pre-/postemergence herbicide test; type: in vivo, Xanthium strumarium; conditions: for Cocklebur plant response rating: postemergence, visual rating, scale 0 (no effect) to 100 (complete control)
Summary of the method: as §2

corn = assay: Test B pre-/postemergence herbicide test; type: in vivo, Zea mays; conditions: for Corn plant response rating: postemergence, visual rating, scale 0 (no effect) to 100 (complete control)
Summary of the method: as §3

large crabgrass [7] = assay: Test B pre-/postemergence herbicide test; type: in vivo, Digitaria sanguinalis; conditions: for Crabgrass, Large plant response rating: postemergence, visual rating, scale 0 (no effect) to 100 (complete control)
Summary of the method: as §3

giant foxtail [8] = assay: Test B pre-/postemergence herbicide test; type: in vivo, Setaria faberi; conditions: for Foxtail, Giant plant response rating: postemergence, visual rating, scale 0 (no effect) to 100 (complete control)
Summary of the method: as §3

lambsquarters = assay: Test B pre-/postemergence herbicide test; type: in vivo, Chenopodium album; conditions: for Lambsquarters plant response rating: postemergence, visual rating, scale 0 (no effect) to 100 (complete control)
Summary of the method: as §3

morningglory [9] = assay: Test B pre-/postemergence herbicide test; type: in vivo, Ipomoea coccinea; conditions: for Morningglory plant response rating: postemergence, visual rating, scale 0 (no effect) to 100 (complete control)
Summary of the method: as §2

pigweed = assay: Test B pre-/postemergence herbicide test; type: in vivo, Amaranthus retroflexus; conditions: for Pigweed plant response rating: postemergence, visual rating, scale 0 (no effect) to 100 (complete control)
Summary of the method: as §3

rice [10] = assay: Test B pre-/postemergence herbicide test; type: in vivo, Oryza sativa; conditions: preemergence
Summary of the method: as §3

velvetleaf [11] = assay: Test B pre-/postemergence herbicide test; type: in vivo, Abutilon theophrasti; conditions: for Velvetleaf plant response rating: postemergence, visual rating, scale 0 (no effect) to 100 (complete control)
Summary of the method: as §3

blackgrass = assay: Test B postemergence herbicide test; type: in vivo, Alopecurus myosuroides; conditions: postemergence, visual rating, scale 0 (no effect) to 100 (complete control)
Summary of the method: (§4)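 Greenhouse test; postemergence application to plants at 1–4 leaves (2–18 cm); paddy species at 2 leaves; evaluated visually vs controls at 13–15 days; scale 0–100 (100 = complete control).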

wheat = assay: Test B postemergence herbicide test; type: in vivo, Triticum aestivum; design: key to Wheat plant response rating: 0 = no effect, 100 = complete control; conditions: postemergence, visual rating, scale 0 (no effect) to 100 (complete control)
Summary of the method: (§5)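 Read-out: visual comparison with controls, scored 0 to 100, where 100 means complete control and 0 no effect. Formulated chemicals were applied postemergence to plants 2–18 cm tall (1- to 4-leaf), or to flooded-paddy plants at the 2-leaf stage, then held 13 to 15 days under glass.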

wild oat = assay: Test B postemergence herbicide test; type: in vivo, Avena fatua; conditions: postemergence, visual rating, scale 0 (no effect) to 100 (complete control)
Summary of the method: as §5

rice [12] = assay: Test B flooded paddy test; type: in vivo, Oryza sativa; conditions: 1000 g ai/ha, visual rating, scale 0 to 100 (0 no effect, 100 complete control), 13 to 15 days
Summary of the method: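 Plants grow to 1- to 4-leaf stage (2–18 cm) for postemergence spraying, or to 2-leaf stage for the paddy test. Formulated compound is applied. Greenhouse holding lasts 13–15 days. Response is scored visually relative to controls, 0 no effect to 100 complete control; a dash means no result.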

[13] = tested on: small flower umbrella sedge; assay: Test B flooded paddy test; type: in vivo, Cyperus difformis; conditions: 1000 g ai/ha, visual rating, scale 0 to 100 (0 no effect, 100 complete control), 13 to 15 days
Summary of the method: as §4

ducksalad = assay: Test B flooded paddy test; type: in vivo, Heteranthera limosa; conditions: 1000 g ai/ha, visual rating, scale 0 to 100 (0 no effect, 100 complete control), 13 to 15 days
Summary of the method: as §4

barnyardgrass [14] = assay: Test B flooded paddy test; type: in vivo, Echinochloa crus-galli; conditions: 1000 g ai/ha, visual rating, scale 0 to 100 (0 no effect, 100 complete control), 13 to 15 days
Summary of the method: as §4

[15] = Postemergence, 500 g ai/ha, 0 to 100 scale, 0 no effect, 100 complete control
[16] = Postemergence, 2000 g ai/ha, 0 to 100 scale, 0 no effect, 100 complete control
[17] = Preemergence, 2000 g ai/ha, visual rating, 0 to 100 scale (0 no effect, 100 complete control)
[18] = preemergence, 500 g ai/ha, visual injury, 0 to 100 scale (0 no effect, 100 complete control)
[19] = 125 g ai/ha, 0 = no effect, 100 = complete control, preemergence
[20] = 500 g ai/ha, visual rating 0-100, 0 no effect, 100 complete control, preemergence

## CCOC(=O)c1cccc(NC(=O)c2sc(C(C)(C)C)nc2CC)c1 [Compound 204]
Barnyardgrass [1]; [15]
  Barnyardgrass plant response rating: 25
Barnyardgrass [1]; [16]
  Plant response rating, Barnyardgrass: 30
Barnyardgrass [1]; [17]
  Barnyardgrass plant response rating: 5
Barnyardgrass [1]; [18]
  Barnyardgrass plant response rating: 0
Large crabgrass [2]; [15]
  Crabgrass, Large plant response rating: 30
Large crabgrass [2]; [16]
  Plant response rating, Crabgrass, Large: 30
Large crabgrass [2]; [17]
  Crabgrass, Large plant response rating: 10
Large crabgrass [2]; [18]
  Crabgrass, Large plant response rating: 0
Giant foxtail [3]; [15]
  Foxtail, Giant plant response rating: 25
Giant foxtail [3]; [16]
  Plant response rating, Foxtail, Giant: 25
Giant foxtail [3]; [17]
  Foxtail, Giant plant response rating: 10
Giant foxtail [3]; [18]
  Foxtail, Giant plant response rating: 0
Morningglory [4]; [15]
  Morningglory plant response rating: 20
Morningglory [4]; [16]
  Plant response rating, Morningglory: 15
Morningglory [4]; [17]
  Morningglory plant response rating: 25
Morningglory [4]; [18]
  Morningglory plant response rating: 10
Redroot pigweed; [15]
  Pigweed plant response rating: 50
Redroot pigweed; [16]
  Plant response rating, Pigweed: 60
Redroot pigweed; [17]
  Pigweed plant response rating: 10
Redroot pigweed; [18]
  Pigweed plant response rating: 0
Velvetleaf [5]; [15]
  Velvetleaf plant response rating: 40
Velvetleaf [5]; [16]
  Plant response rating, Velvetleaf: 60
Velvetleaf [5]; [17]
  Velvetleaf plant response rating: 25
Velvetleaf [5]; [18]
  Velvetleaf plant response rating: 5
Barnyardgrass [6]; [19]
  Barnyardgrass plant response rating (0 to 100 scale): 0
Barnyardgrass [6]; [20]
  Plant response rating, Barnyardgrass: 0
Barnyardgrass [6]; 125 g ai/ha
  Barnyardgrass plant response rating: 10
Barnyardgrass [6]; 500 g ai/ha
  Barnyardgrass plant response rating: 10
Surinam grass; [19]
  Surinam Grass plant response rating (0 to 100 scale): 0
Surinam grass; [20]
  Plant response rating, Surinam Grass: 0
Surinam grass; 125 g ai/ha
  Surinam Grass plant response rating: 20
Surinam grass; 500 g ai/ha
  Surinam Grass plant response rating: 50
cocklebur; [19]
  Cocklebur plant response rating (0 to 100 scale): 0
cocklebur; [20]
  Plant response rating, Cocklebur: 0
cocklebur; 125 g ai/ha
  Cocklebur plant response rating: 90
cocklebur; 500 g ai/ha
  Cocklebur plant response rating: 90
corn; [19]
  Corn plant response rating (0 to 100 scale): 0
corn; [20]
  Plant response rating, Corn: 0
corn; 125 g ai/ha
  Corn plant response rating: 20
corn; 500 g ai/ha
  Corn plant response rating: 20
Large crabgrass [7]; [19]
  Crabgrass, Large plant response rating (0 to 100 scale): 0
Large crabgrass [7]; [20]
  Plant response rating, Crabgrass, Large: 0
Large crabgrass [7]; 125 g ai/ha
  Crabgrass, Large plant response rating: 10
Large crabgrass [7]; 500 g ai/ha
  Crabgrass, Large plant response rating: 10
Giant foxtail [8]; [19]
  Foxtail, Giant plant response rating (0 to 100 scale): 0
Giant foxtail [8]; [20]
  Plant response rating, Foxtail, Giant: 0
Giant foxtail [8]; 125 g ai/ha
  Foxtail, Giant plant response rating: 10
Giant foxtail [8]; 500 g ai/ha
  Foxtail, Giant plant response rating: 20
lambsquarters; [19]
  Lambsquarters plant response rating (0 to 100 scale): 0
lambsquarters; [20]
  Plant response rating, Lambsquarters: 0
lambsquarters; 125 g ai/ha
  Lambsquarters plant response rating: 30
lambsquarters; 500 g ai/ha
  Lambsquarters plant response rating: 50
Morningglory [9]; [20]
  Plant response rating, Morningglory: 10
Morningglory [9]; 125 g ai/ha
  Morningglory plant response rating: 20
Morningglory [9]; 500 g ai/ha
  Morningglory plant response rating: 40
pigweed; [19]
  Pigweed plant response rating (0 to 100 scale): 0
pigweed; [20]
  Plant response rating, Pigweed: 10
pigweed; 125 g ai/ha
  Pigweed plant response rating: 50
pigweed; 500 g ai/ha
  Pigweed plant response rating: 70
Rice [10]; 125 g ai/ha, 0 = no effect, 100 = complete control
  Rice plant response rating (0 to 100 scale): 0
Rice [10]; 500 g ai/ha, visual rating 0-100, 0 no effect, 100 complete control
  Plant response rating, Rice: 0
Velvetleaf [11]; [19]
  Velvetleaf plant response rating (0 to 100 scale): 0
Velvetleaf [11]; [20]
  Plant response rating, Velvetleaf: 0
Velvetleaf [11]; 125 g ai/ha
  Velvetleaf plant response rating: 60
Velvetleaf [11]; 500 g ai/ha
  Velvetleaf plant response rating: 70
blackgrass; 125 g ai/ha
  Blackgrass plant response rating: 20
blackgrass; 500 g ai/ha
  Blackgrass plant response rating: 20
wheat; 125 g ai/ha
  Wheat plant response rating: 10
wheat; 500 g ai/ha
  Wheat plant response rating: 30
Wild oat; 125 g ai/ha
  Oat, Wild plant response rating: 10
Wild oat; 500 g ai/ha
  Oat, Wild plant response rating: 20
Rice [12]
  Rice plant response rating: 30
[13]
  Sedge, Umbrella plant response rating: 80
ducksalad
  Ducksalad plant response rating: 40
Barnyardgrass [14]
  Barnyardgrass plant response rating: 20
